Assay results: PubChem BioAssay AID248 (DTP/NCI, 2004)
Values joined by “and” are separate entries in the source; they are usually repeats but may differ in a detail not shown here. Equal values may be shown once. Inconclusive results and toxic doses are left out. No stated cut-off is given here; in the data, active means T/C of 150% or more; inactive means T/C below 125%.

System: L1210 leukemia ip in BDF1 mice, survival T/C
Assay: NCI In Vivo Anticancer Drug Screen. Data for tumor model L1210 Leukemia (intraperitoneal) in B6D2F1 (BDF1) mice
Conditions: endpoint: mean survival time, higher = longer survival
Procedure, shortened: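 Survival endpoint. Drug-treated group vs vehicle group, expressed as T divided by C. Tumor passaged by transplantation.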

[1] = dose: 100.0 mg/kg/injection, schedule: Q01DX009 (ip), vehicle: saline
[2] = dose: 100.0 mg/kg/injection, schedule: Q04DX003 (ip), vehicle: saline
[3] = dose: 200.0 mg/kg/injection, schedule: Q01DX009 (ip), vehicle: saline
[4] = dose: 200.0 mg/kg/injection, schedule: Q04DX003 (ip), vehicle: saline
[5] = dose: 400.0 mg/kg/injection, schedule: Q01DX009 (ip), vehicle: saline
[6] = dose: 400.0 mg/kg/injection, schedule: Q04DX003 (ip), vehicle: saline
[7] = dose: 100.0 mg/kg/injection, schedule: Q01DX009 (ip), vehicle: saline with Tween-80
[8] = dose: 100.0 mg/kg/injection, schedule: Q04DX002 (ip), vehicle: saline with Tween-80
[9] = dose: 200.0 mg/kg/injection, schedule: Q01DX009 (ip), vehicle: saline with Tween-80
[10] = dose: 200.0 mg/kg/injection, schedule: Q04DX002 (ip), vehicle: saline with Tween-80
[11] = dose: 400.0 mg/kg/injection, schedule: Q01DX009 (ip), vehicle: saline with Tween-80
[12] = dose: 400.0 mg/kg/injection, schedule: Q04DX002 (ip), vehicle: saline with Tween-80
[13] = dose: 100.0 mg/kg/injection, schedule: Q01DX009 (ip), vehicle: Klucel (hydroxypropylcellulose) (HPC)
[14] = dose: 200.0 mg/kg/injection, schedule: Q01DX009 (ip), vehicle: Klucel (hydroxypropylcellulose) (HPC)
[15] = dose: 400.0 mg/kg/injection, schedule: Q01DX009 (ip), vehicle: Klucel (hydroxypropylcellulose) (HPC)
[16] = dose: 25.0 mg/kg/injection, schedule: Q04DX002 (ip), vehicle: saline
[17] = dose: 50.0 mg/kg/injection, schedule: Q04DX002 (ip), vehicle: saline
[18] = dose: 100.0 mg/kg/injection, schedule: Q04DX003 (ip), vehicle: saline with Tween-80
[19] = dose: 200.0 mg/kg/injection, schedule: Q04DX003 (ip), vehicle: saline with Tween-80
[20] = dose: 400.0 mg/kg/injection, schedule: Q04DX003 (ip), vehicle: saline with Tween-80
[21] = dose: 12.5 mg/kg/injection, schedule: Q01DX009 (ip), vehicle: Klucel (hydroxypropylcellulose) (HPC)
[22] = dose: 25.0 mg/kg/injection, schedule: Q01DX009 (ip), vehicle: Klucel (hydroxypropylcellulose) (HPC)
[23] = dose: 25.0 mg/kg/injection, schedule: Q04DX003 (ip), vehicle: Klucel (hydroxypropylcellulose) (HPC)
[24] = dose: 50.0 mg/kg/injection, schedule: Q01DX009 (ip), vehicle: Klucel (hydroxypropylcellulose) (HPC)
[25] = dose: 100.0 mg/kg/injection, schedule: Q04DX003 (ip), vehicle: Klucel (hydroxypropylcellulose) (HPC)
[26] = dose: 200.0 mg/kg/injection, schedule: Q04DX003 (ip), vehicle: Klucel (hydroxypropylcellulose) (HPC)
[27] = dose: 400.0 mg/kg/injection, schedule: Q04DX003 (ip), vehicle: Klucel (hydroxypropylcellulose) (HPC)

Measured: T/C

NC(=O)n1nccc1N
inactive: [1] 100 % of control | [2] 94 % of control | [3] 103 % of control | [4] 104 % of control | [5] 105 % of control | [6] 91 % of control

CCOC(=O)c1ccc(NC(=O)CN2CCOCC2)cc1
inactive: dose: 222.0 mg/kg/injection, schedule: Q01DX Z (ip), vehicle: saline 102 % of control | dose: 333.0 mg/kg/injection, schedule: Q01DX Z (ip), vehicle: saline 98 % of control | dose: 500.0 mg/kg/injection, schedule: Q01DX Z (ip), vehicle: saline 90 % of control

CCOC(=O)CNCCN(CC)CC
inactive: dose: 100.0 mg/kg/injection, schedule: Q01DX001 (ip), vehicle: saline with Tween-80 101 % of control | dose: 200.0 mg/kg/injection, schedule: Q01DX001 (ip), vehicle: saline with Tween-80 111 % of control | dose: 400.0 mg/kg/injection, schedule: Q01DX001 (ip), vehicle: saline with Tween-80 94 % of control

CCOC(=O)C1OC12CCC(C(C)(C)C)CC2 (stereo unspecified)
inactive: [7] 95 % of control | [8] 100 % of control | [9] 91 % of control | [10] 100 % of control | [11] 88 % of control | [12] 93 % of control

O=C(/C=N/O)Nc1ccccc1
inactive: [7] 101 % of control | [9] 101 % of control | [11] 98 % of control

CCCCCc1cc2c3c(c(=O)oc2cc1O)CCCCC3
inactive: dose: 100.0 mg/kg/injection, schedule: Q04DX003 (ip), vehicle: gum acacia 90 % of control | dose: 200.0 mg/kg/injection, schedule: Q04DX003 (ip), vehicle: gum acacia 88 % of control | dose: 400.0 mg/kg/injection, schedule: Q04DX003 (ip), vehicle: gum acacia 96 % of control

CCc1ccc(/C(C#N)=C/c2ccc(OC)cc2)cc1
inactive: [13] 92 % of control | [14] 94 % of control | [15] 92 % of control

C#CCSC(C)C
inactive: [16] 104 % of control | [17] 104 % of control | dose: 100.0 mg/kg/injection, schedule: Q04DX002 (ip), vehicle: saline 96 % of control | dose: 200.0 mg/kg/injection, schedule: Q04DX002 (ip), vehicle: saline 104 % of control and 107 % of control | dose: 400.0 mg/kg/injection, schedule: Q04DX002 (ip), vehicle: saline 93 % of control

O=CNc1ccccc1
inactive: [18] 96 % of control | [19] 98 % of control | [20] 98 % of control

CCOC(=O)C(C)(C)CN(CC(C)(C)C(=O)OCC)c1ccccc1
inactive: [18] 106 % of control | [19] 106 % of control | [20] 104 % of control

O=C1C2CCC(=O)N2c2ccccc2S(=O)(=O)C1c1ccccc1 (stereo unspecified)
inactive: [21] 95 % of control | [22] 98 % of control | [23] 96 % of control | [24] 91 % of control | dose: 50.0 mg/kg/injection, schedule: Q04DX003 (ip), vehicle: Klucel (hydroxypropylcellulose) (HPC) 96 % of control

[O-][n+]1ccccc1Cc1ccccc1
inactive: dose: 50.0 mg/kg/injection, schedule: Q01DX009 (ip), vehicle: saline with Tween-80 90 % of control | [7] 90 % of control | [8] 97 % of control | [9] 90 % of control | [10] 101 % of control | [12] 101 % of control

Nc1ccc(OC(F)(F)C(F)Cl)cc1 (stereo unspecified)
inactive: [13] 97 % of control | [25] 97 % of control | [14] 99 % of control | [26] 100 % of control | [15] 116 % of control | [27] 101 % of control

NCCN1CCN=C1C1=NCCN1CCN
inactive: [1] 98 % of control | [2] 100 % of control | [3] 93 % of control | [4] 98 % of control | [5] 98 % of control | [6] 96 % of control

CC1CCC2(O)C3(C)CC(=O)OC2(C1O)C1(O)C(C)C(O)(C(C)C)C(O)C31O (stereo unspecified)
inactive: dose: 5.0 mg/kg/injection, schedule: Q01DX001 (ip), vehicle: saline 101 % of control

COc1cc(/C=C\C(=O)c2ccccc2)c([N+](=O)[O-])cc1OC
inactive: dose: 100.0 mg/kg/injection, schedule: Q01DX001 (ip), vehicle: water 90 % of control | dose: 200.0 mg/kg/injection, schedule: Q01DX001 (ip), vehicle: water 88 % of control | dose: 400.0 mg/kg/injection, schedule: Q01DX001 (ip), vehicle: water 90 % of control

O=C(/C(=C/c1ccc2c(c1)OCO2)c1ccccc1)c1ccc(OCCN2CCCC2)cc1
inactive: dose: 100.0 mg/kg/injection, schedule: Q01DX001 (ip), vehicle: carboxymethylcellulose (CMC) 95 % of control | dose: 200.0 mg/kg/injection, schedule: Q01DX001 (ip), vehicle: carboxymethylcellulose (CMC) 106 % of control | dose: 400.0 mg/kg/injection, schedule: Q01DX001 (ip), vehicle: carboxymethylcellulose (CMC) 95 % of control

CCOC(=O)NCC(CCN1CCCC1)(CCN1CCCC1)c1cccc2ccccc12
inactive: [16] 101 % of control | [17] 93 % of control

CC(=O)OCC(OC(C)=O)C(OC(C)=O)C(OC(C)=O)C(COC(C)=O)OC(C)=O (stereo unspecified)
inactive: [18] 97 % of control | [19] 93 % of control | [20] 98 % of control

O=C(O)CNc1nc(Cl)nc(NCC(=O)O)n1
inactive: [24] 106 % of control | [13] 89 % of control

Clc1ccc2sc3c(c2c1)CCNC3
inactive: [21] 94 % of control | [22] 97 % of control | [23] 97 % of control | [24] 90 % of control | [13] 101 % of control | [25] 92 % of control | [14] 95 % of control | [26] 92 % of control

CC(=O)NC1(C(=O)O)CSSC1
inactive: dose: 50.0 mg/kg/injection, schedule: Q01DX005 (ip), vehicle: saline 102 % of control | dose: 100.0 mg/kg/injection, schedule: Q01DX005 (ip), vehicle: saline 100 % of control | dose: 200.0 mg/kg/injection, schedule: Q01DX005 (ip), vehicle: saline 93 % of control | dose: 400.0 mg/kg/injection, schedule: Q01DX005 (ip), vehicle: saline 102 % of control

CN(C)c1ccc(C=Nc2cccc(Cl)c2)cc1
inactive: [25] 91 % of control | [26] 93 % of control | [27] 91 % of control

O=C(O)c1cccc(CBr)c1CBr
inactive: dose: 6.25 mg/kg/injection, schedule: Q01DX001 (ip), vehicle: saline with Tween-80 97 % of control | dose: 6.25 mg/kg/injection, schedule: Q01DX009 (ip), vehicle: saline with Tween-80 93 % of control | dose: 12.5 mg/kg/injection, schedule: Q01DX001 (ip), vehicle: saline with Tween-80 96 % of control | dose: 12.5 mg/kg/injection, schedule: Q01DX009 (ip), vehicle: saline with Tween-80 96 % of control | dose: 25.0 mg/kg/injection, schedule: Q01DX001 (ip), vehicle: saline with Tween-80 100 % of control

Clc1ccc(/C=C/c2ccccn2)c(Cl)c1
inactive: dose: 100.0 mg/kg/injection, schedule: Q04DX002 (ip), vehicle: gum acacia 109 % of control | dose: 200.0 mg/kg/injection, schedule: Q04DX002 (ip), vehicle: gum acacia 95 % of control | dose: 400.0 mg/kg/injection, schedule: Q04DX002 (ip), vehicle: gum acacia 87 % of control

CN(C)C(=O)c1cccc(NC(=O)NCc2cccc(N3C(N)=NC(N)=NC3(C)C)c2)c1
inactive: [7] 91 % of control | [18] 97 % of control

O=P(O)(c1ccccc1)c1ccc(I)cc1
inactive: dose: 100.0 mg/kg/injection, schedule: Q01DX001 (ip), vehicle: saline 100 % of control | [2] 100 % of control | dose: 200.0 mg/kg/injection, schedule: Q01DX001 (ip), vehicle: saline 96 % of control | [4] 96 % of control | dose: 400.0 mg/kg/injection, schedule: Q01DX001 (ip), vehicle: saline 98 % of control | [6] 94 % of control
